# Measured values reported in ChEMBL document CHEMBL6071133, “Discovery of novel penetrating peptides able to target human leukemia and lymphoma for enhanced PROTAC delivery” (Eur J Med Chem, 2024).
# Active and inactive are the calls of the source. The rule behind the calls is not given here. Square brackets hold non-standard residues; d marks the D form. Peptide text beside a SMILES is read from it. Bta = N[C@@H](Cc1csc2ccccc12)C(=O)O
# Key:
# [1] = Drug uptake in human K562 cells assessed as membrane penetration by measuring increase in fluorescence intensity at 5 umol/L incubated for 2 hrs by flow cytometry relative to C9C; format: ADME, cell-based; conditions: k562, 2 h, 5 µM, dose 5 µmol/L
# [2] = Drug uptake in human KU812 cells assessed as membrane penetration by measuring increase in fluorescence intensity at 5 umol/L incubated for 2 hrs by flow cytometry relative to C9C; format: ADME, cell-based; conditions: ku812, 2 h, 5 µM, dose 5 µmol/L
# [3] = Stability of the compound in fetal bovine serum assessed as parent compound remaining measured after 36 hrs by HPLC-MS analysis; format: ADME, cell-free, Bos taurus; conditions: cattle, read-out: Stability
# [4] = Drug uptake in human K562 cells assessed as fluorescence intensity at 5 umol/L pretreated with endocytosis inhibitor, chloroquine for 0.5 hrs followed by incubation with compound for 2 hrs by FACS analysis; format: ADME, cell-based; conditions: k562, 2 h, 5 µM, dose 5 µmol/L
# [5] = Drug uptake in human CCRF-CEM cells assessed as perinuclear distribution and colocalization with nucleus at 10 umol/L incubated for 2 hrs by confocal laser microscopy; format: ADME, cell-based; conditions: 10 µM, dose 10 µmol/L
# [6] = Drug uptake in human K562 cells assessed as membrane permeability by measuring increase in fluorescence intensity at 5 umol/L incubated for 2 hrs by flow cytometry relative to THP-1 cells; format: ADME, cell-based; conditions: k562, 2 h, 5 µM, dose 5 µmol/L
# [7] = Cytotoxicity against human CCRF-CEM cells assessed as cell viability at 0.01 to 100 uM incubated for 48 hrs by MTT assay; format: toxicity, cell-based; conditions: dose 0.01-100 µM, read-out: Activity
# [8] = test system: K562; test: Induction of apoptosis in human K562 cells assessed as necrotic cells at PROTAC to compound concentration ratio of 1:5 incubated for 48 hrs in presence of 3 umol/L IMA-PROTAC by AnnexinV-FITC/PI staining based flow cytometry (reference value: 0.1%); format: functional
# [9] = Drug uptake in human K562 cells assessed as fluorescence intensity at 5 umol/L pretreated with endocytosis inhibitor, methyl-beta-cyclodextrin for 0.5 hrs followed by incubation with compound for 2 hrs by FACS analysis; format: ADME, cell-based; conditions: k562, 2 h, 5 µM, dose 5 µmol/L
# [10] = Cytotoxicity against human THP-1 cells assessed as cell viability at higher concentrations incubated for 48 hrs by MTT assay; format: toxicity, cell-based; conditions: read-out: Activity
# [11] = Stability of the compound in fetal bovine serum assessed as parent compound remaining measured after 12 hrs by HPLC-MS analysis; format: ADME, cell-free, Bos taurus; conditions: cattle, read-out: Stability
# [12] = Drug uptake in human KU812 cells assessed as perinuclear distribution and colocalization with nucleus at 10 umol/L incubated for 2 hrs by confocal laser microscopy; format: ADME, cell-based; conditions: ku812, 2 h, 10 µM, dose 10 µmol/L
# [13] = test system: K562; test: Induction of apoptosis in human K562 cells assessed as early apoptotic cells at PROTAC to compound concentration ratio of 1:5 incubated for 48 hrs in presence of 3 umol/L IMA-PROTAC by AnnexinV-FITC/PI staining based flow cytometry (reference value: 0.03%); format: functional
# [14] = test system: K562; test: Increase in membrane permeability of IMA-PROTAC in human K562 cells assessed as potentiation of IMA-PROTAC-induced inhibition of STAT5 phosphorylation at PROTAC to compound concentration ratio of 1:5 to 1:3 incubated for 48 hrs in presence of 3 umol/L IMA-PROTAC by western blot analysis; format: functional, cell-based
# [15] = Drug uptake in human KU812 cells assessed as membrane permeability by measuring increase in fluorescence intensity at 5 umol/L incubated for 2 hrs by flow cytometry relative to THP-1 cells; format: ADME, cell-based; conditions: ku812, 2 h, 5 µM, dose 5 µmol/L
# [16] = test system: K562; test: Induction of cell cycle arrest in human K562 cells assessed as accumulation of cells at G2/M phase at PROTAC to compound concentration ratio of 1:5 incubated for 48 hrs in presence of 3 umol/L IMA-PROTAC by propidium iodide staining based flow cytometry; format: functional
# [17] = Drug uptake in human KU812 cells assessed as increase in fluorescence intensity at 1 to 10 umol/L incubated for 2 hrs by cell imaging based fluorescence microscopic analysis; format: ADME; conditions: ku812, 2 h, dose 1-10 µmol/L
# [18] = test system: K562; test: Induction of apoptosis in human K562 cells assessed as late apoptotic cells at PROTAC to compound concentration ratio of 1:5 incubated for 48 hrs in presence of 3 umol/L IMA-PROTAC by AnnexinV-FITC/PI staining based flow cytometry (reference value: 0.01%); format: functional
# [19] = test system: K562; test: Potentiation of IMA-PROTAC-induced cytotoxicity against human K562 cells assessed as inhibition of cell growth at compound: IMA-PROTAC concentration ratio of 5:1 incubated for 48 hrs in presence of 3 umo/L IMA-PROTAC by MTT assay; format: functional, cell-based
# [20] = Cytotoxicity against human K562 cells assessed as cell viability at 0.01 to 100 uM incubated for 48 hrs by MTT assay; format: toxicity, cell-based; conditions: dose 0.01-100 µM, read-out: Activity
# [21] = Stability of the compound in fetal bovine serum assessed as parent compound remaining measured after 8 hrs by HPLC-MS analysis; format: ADME, cell-free, Bos taurus; conditions: cattle, read-out: Stability
# [22] = Drug uptake in human K562 cells assessed as fluorescence intensity at 5 umol/L pretreated with endocytosis inhibitor, chlorpromazine for 0.5 hrs followed by incubation with compound for 2 hrs by FACS analysis; format: ADME, cell-based; conditions: k562, 2 h, 5 µM, dose 5 µmol/L
# [23] = Drug uptake in human K562 cells assessed as increase in fluorescence intensity at 5 umol/L measured for 60 to 240 mins by flow cytometry; format: ADME, cell-based; conditions: k562, 5 µM, TDE = time-dependent effect, time 60-240 min, dose 5 µmol/L
# [24] = Drug uptake in human K562 cells assessed as perinuclear distribution and colocalization with nucleus at 10 umol/L incubated for 2 hrs by confocal laser microscopy; format: ADME, cell-based; conditions: k562, 2 h, 10 µM, dose 10 µmol/L
# [25] = Cytotoxicity against human KU812 cells assessed as cell viability at 0.01 to 100 uM incubated for 48 hrs by MTT assay; format: toxicity, cell-based; conditions: dose 0.01-100 µM, read-out: Activity
# [26] = test system: K562; test: Increase in membrane permeability of IMA-PROTAC in human K562 cells assessed as potentiation of IMA-PROTAC-induced Bcr-Abl degradation at PROTAC to compound concentration ratio of 1:5 to 1:3 incubated for 48 hrs in presence of 3 umol/L IMA-PROTAC by western blot analysis; format: functional, cell-based
# [27] = Interaction with IMA-PROTAC assessed as induction of assembly formation by transmission electron microscopy; format: physicochemical
# [28] = Drug uptake in human K562 cells assessed as increase in fluorescence intensity at 5 umol/L pretreated with endocytosis inhibitor, nystatin for 0.5 hrs followed by incubation with compound for 2 hrs by FACS analysis; format: ADME, cell-based; conditions: k562, 2 h, 5 µM, dose 5 µmol/L
# [29] = Drug uptake in human K562 cells assessed as increase in fluorescence intensity at 1 to 10 uM incubated for 2 hrs by flow cytometry; format: ADME, cell-based; conditions: k562, 2 h, dose 1-10 µM
# [30] = test system: K562; test: Induction of apoptosis in human K562 cells assessed as viable cells at PROTAC to compound concentration ratio of 1:5 incubated for 48 hrs in presence of 3 umol/L IMA-PROTAC by AnnexinV-FITC/PI staining based flow cytometry (reference value: 99.85%); format: functional
# [31] = Interaction with IMA-PROTAC assessed as induction of formation of micelle cluster with uniform and distinct spherical morphology by transmission electron microscopy; format: physicochemical
# [32] = Drug uptake in human K562 cells assessed as increase in fluorescence intensity at 1 to 10 umol/L incubated for 2 hrs by cell imaging based fluorescence microscopic analysis; format: ADME; conditions: k562, 2 h, dose 1-10 µmol/L
# [33] = Drug uptake in human K562 cells assessed as increase in fluorescence intensity at 5 umol/L measured for 5 to 30 mins by flow cytometry; format: ADME, cell-based; conditions: k562, 5 µM, TDE = time-dependent effect, time 5-30 min, dose 5 µmol/L
# [34] = Drug uptake in human KU812 cells assessed as increase in fluorescence intensity at 1 to 10 uM incubated for 2 hrs by flow cytometry; format: ADME, cell-based; conditions: ku812, 2 h, dose 1-10 µM
# [35] = Increase in membrane permeation of IMA-PROTAC in human K562 cells assessed as increase in intracellular content of IMA-PROTAC incubated for 3 hrs by HPLC-MRM-MS analysis relative to control; format: functional
# [36] = Drug uptake in human CCRF-CEM cells assessed as membrane penetration by measuring increase in fluorescence intensity at 5 umol/L incubated for 2 hrs by flow cytometry relative to C9C; format: ADME, cell-based; conditions: 5 µM, dose 5 µmol/L
# [37] = Drug uptake in human KU812 cells assessed as membrane permeability at 5 umol/L incubated for 2 hrs by flow cytometry relative to C9C; format: ADME, cell-based; conditions: ku812, 2 h, 5 µM, dose 5 µmol/L
# [38] = Drug uptake in human K562 cells assessed as membrane permeability at 5 umol/L incubated for 2 hrs by flow cytometry relative to C9C; format: ADME, cell-based; conditions: k562, 2 h, 5 µM, dose 5 µmol/L
structure (smiles),measurement,setting,value
CC(C)C[C@@H]1NC(=O)[C@H](Cc2c[nH]c3ccccc23)NC(=O)[C@H](Cc2ccccc2)NC(=O)[C@H](Cc2ccccc2)NC(=O)[C@H](CCCNC(=N)N)NC(=O)[C@H](CCCCN)NC(=O)[C@H](CCC(=O)O)NC(=O)[C@H](CO)NC(=O)[C@H](CCCNC(=N)N)NC1=O (cyclo(EKRFFWLRS)),fold change (FC),[1],5.28
same,fold change (FC),[2],5.65
CC(C)C[C@@H]1NC(=O)[C@H](Cc2c[nH]c3ccccc23)NC(=O)[C@H](Cc2ccc(O)cc2)NC(=O)[C@H](Cc2ccccc2)NC(=O)[C@H](CCCNC(=N)N)NC(=O)[C@H](CCCCN)NC(=O)[C@H](CCC(=O)O)NC(=O)[C@H](CO)NC(=O)[C@H](CCCNC(=N)N)NC1=O (cyclo(EKRFYWLRS)),remaining at 36 h,[3],75%
same,Drug uptake,[4],Not Active
same,Drug uptake,[5],Active
same,fold change (FC),[6],33.3
same,"viability at 48 h, up to 100 µM",[7],> 75%
same,Activity,[8],0.06%
same,Drug uptake,[9],Not Active
same,viability at 48 h,[10],> 75%
same,remaining at 12 h,[11],80%
same,Drug uptake,[12],Active
same,Activity,[13],10.71%
same,Activity,[14],Active
same,fold change (FC),[1],9.24
same,fold change (FC),[15],11.7
same,Activity,[16],Active
same,Drug uptake,[17],Active
same,Activity,[18],1.58%
same,Activity,[19],inactive
same,"viability at 48 h, up to 100 µM",[20],> 75%
same,remaining at 8 h,[21],100%
same,Drug uptake,[22],Not Active
same,Drug uptake,[23],Tde
same,Drug uptake,[24],Active
same,"viability at 48 h, up to 100 µM",[25],> 75%
same,Activity,[26],Active
same,Activity,[27],Not Active
same,Drug uptake,[28],Active
same,Drug uptake,[29],Dose-Dependent Effect
same,Activity,[30],87.64%
same,Activity,[31],Not Active
same,Drug uptake,[32],Active
same,Drug uptake,[33],Tde
same,Drug uptake,[34],Dose-Dependent Effect
same,fold change (FC),[2],7.99
same,fold change (FC),[35],2.05
CC(C)C[C@@H]1NC(=O)[C@H](Cc2c[nH]c3ccccc23)NC(=O)[C@H](Cc2ccc(O)cc2)NC(=O)[C@H](Cc2ccccc2)NC(=O)CNC(=O)[C@H](CCCCN)NC(=O)[C@H](CC(=O)O)NC(=O)[C@H](CO)NC(=O)[C@H](CCCNC(=N)N)NC1=O (cyclo(DKGFYWLRS)),fold change (FC),[36],3.1
CC(C)C[C@H](NC(=O)[C@H](Cc1csc2ccccc12)NC(=O)[C@H](Cc1ccc(O)cc1)NC(=O)[C@H](Cc1ccccc1)NC(=O)CNC(=O)[C@@H](N)CS)C(=O)N[C@@H](CCCNC(=N)N)C(=O)N[C@@H](CO)C(=O)N[C@@H](CS)C(=O)O (H-CGFY[Bta]LRSC-OH),fold change (FC),[36],4.78
CC(C)C[C@@H]1NC(=O)[C@H](Cc2c[nH]c3ccccc23)NC(=O)[C@H](Cc2ccccc2)NC(=O)[C@H](Cc2ccccc2)NC(=O)CNC(=O)[C@H](CCCCN)NC(=O)[C@H](CCC(=O)O)NC(=O)[C@H](CO)NC(=O)[C@H](CCCNC(=N)N)NC1=O (cyclo(EKGFFWLRS)),fold change (FC),[1],2.8
CC(C)C[C@@H]1NC(=O)[C@H](Cc2csc3ccccc23)NC(=O)[C@H](Cc2ccc(O)cc2)NC(=O)[C@H](Cc2ccccc2)NC(=O)[C@H](CCCNC(=N)N)NC(=O)[C@H](CCCCN)NC(=O)[C@H](CCC(=O)O)NC(=O)[C@H](CO)NC(=O)[C@H](CCCNC(=N)N)NC1=O (cyclo([Bta]LRSEKRFY)),fold change (FC),[1],5.04
same,fold change (FC),[2],2.69
CC(C)C[C@H](NC(=O)[C@H](Cc1csc2ccccc12)NC(=O)[C@H](Cc1ccc(O)cc1)NC(=O)[C@H](Cc1ccccc1)NC(=O)[C@H](CCCNC(=N)N)NC(=O)[C@@H](N)CS)C(=O)N[C@@H](CCCNC(=N)N)C(=O)N[C@@H](CO)C(=O)N[C@@H](CS)C(=O)O (H-CRFY[Bta]LRSC-OH),Drug uptake,[37],65%
same,Drug uptake,[38],65%
